The values that follow come from article PMC12627810 (Nature Communications, 2025).

Test [1] has as its target T1, SERT WT (Homo sapiens, UniProt P31645). Briefly: [3H]5-HT uptake inhibition, intact COS-7 cells expressing SERT WT. Format: cell-based.
In test [2] the target is T1, SERT WT. The note with it: previous study; cited from earlier work.
Test [3] concerns SERT allosteric site. The note with it: S1-bound [3H]imipramine; cited from earlier work.
Test [4] has as its system SERT F556Anap (purified). Description: Anap fluorescence emission spectra, SERT F556Anap. Also noted: species or system human. The note with it: 200 nM ligand.
Test [5] relates to SERT V86Anap (purified). Briefly: Anap fluorescence emission spectra, SERT V86Anap. The note with it: 200 nM ligand. Also noted: species or system human.
Test [6] concerns SERT-expressing membranes. The note with it: cited from earlier work.
For test [7], the system named is SERT F556Anap (purified). Briefly: Real-time Anap fluorescence measurements, SERT F556Anap. Format: binding, human. The note with it: 200 nM vilazodone after 30 min preincubation with 100 nM imipramine, Na+.

Where “and” joins values, the source holds several entries; their conditions need not be identical. Equal entries are not always repeated. Where two headings read alike, the source gives them in different places.

T1 sequence (P31645 whole entry): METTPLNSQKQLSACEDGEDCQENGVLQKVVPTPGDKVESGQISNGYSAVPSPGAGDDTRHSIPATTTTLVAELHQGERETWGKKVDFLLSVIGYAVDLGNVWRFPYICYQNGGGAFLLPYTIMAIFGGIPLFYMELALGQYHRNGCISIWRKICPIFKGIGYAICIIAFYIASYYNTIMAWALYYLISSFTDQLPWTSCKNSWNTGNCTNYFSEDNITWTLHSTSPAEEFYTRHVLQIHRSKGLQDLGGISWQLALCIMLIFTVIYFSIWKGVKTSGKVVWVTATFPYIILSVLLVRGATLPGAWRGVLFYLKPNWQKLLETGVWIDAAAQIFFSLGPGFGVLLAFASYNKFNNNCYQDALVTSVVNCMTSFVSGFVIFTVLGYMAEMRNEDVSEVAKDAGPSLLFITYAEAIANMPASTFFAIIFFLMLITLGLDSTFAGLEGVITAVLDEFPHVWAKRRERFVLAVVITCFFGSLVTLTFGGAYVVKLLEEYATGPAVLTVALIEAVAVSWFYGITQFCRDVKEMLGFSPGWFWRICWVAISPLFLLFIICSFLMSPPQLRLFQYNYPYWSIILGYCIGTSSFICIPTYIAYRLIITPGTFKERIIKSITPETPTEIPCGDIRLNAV

`N#Cc1ccc2[nH]cc(CCCCN3CCN(c4ccc5oc(C(N)=O)cc5c4)CC3)c2c1` [vilazodone]: in test [1] (SERT WT), the “Hill coefficient (vilazodone)” value is greater than 1. Further, in test [1] (preincubation with 100 nM Fab 15B8 vs buffer, whole cells), the “5-HT uptake inhibition by vilazodone in presence of Fab 15B8” value was “unchanged”. Besides, in test [2], the “Hill coefficient of inhibition of [3H]5-HT uptake” value is 1.8 and ~ 1.8. For the same compound, in test [3], the “allosteric potency (inhibition of dissociation of pre-bound [3H]imipramine)” value was 14 nM and ~ 14 nM. In addition, the “change of F556Anap fluorescence emission” value in test [4] (200 mM K+) was “red-shifted and increase in fluorescence”; in test [4] (200 mM NMDG+) it was “decrease in quantum yield and a blue-shift”; in test [4] (200 mM Na+) it was “large decrease in intensity accompanied by a blue-shift”. Moreover, the “change of V86Anap fluorescence emission” value was “increasing the fluorescence” in test [5] (200 mM K+) and “decreased the fluorescence” in test [5] (200 mM Na+). Also, the “affinity, SERT-expressing membranes” value in test [6] (K+) is recorded as 36.7 nM; in test [6] (Na+), 5.8 nM. In addition, the “τ of time-dependent change in fluorescence, imipramine-bound SERT” value in test [7] is reported as 0.8 ± 0.18 min.
